The experiment addresses T1, HheG (Ilumatobacter coccineus, UniProt Z9P531QQL2, M65F, form not given).
T1 construct: homotetramer
T1 sequence (Z9P531QQL2 21-282 M65F): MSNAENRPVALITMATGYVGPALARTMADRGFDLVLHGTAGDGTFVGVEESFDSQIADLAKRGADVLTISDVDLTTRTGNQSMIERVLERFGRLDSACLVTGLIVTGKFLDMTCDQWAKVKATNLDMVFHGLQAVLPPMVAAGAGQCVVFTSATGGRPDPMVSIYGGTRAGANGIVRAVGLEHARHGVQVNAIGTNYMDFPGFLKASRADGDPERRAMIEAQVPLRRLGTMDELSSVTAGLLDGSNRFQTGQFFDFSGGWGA
The experiment can be described thus: BTB (bromothymol blue) pH-indicator assay, initial rates, Hill fit. The format is biochemical. As to conditions: 2 mM MOPS pH 7.0. The source says:
BTB (bromothymol blue) pH-indicator assay, initial rates, Hill fit on HheG

Molecules are shown by their SMILES. Like-named read-outs stand apart in the source and are kept apart here.

For `[N-]=[N+]=[N-]` [azide], under “cyclohexene oxide fixed at 100 mM, Hill coefficient n 3.94 ± 0.29, read-out: azide / K50”, the Km worked out at 10.1 ± 0.21 mM.

Consider `C1CCC2OC2C1` (centres unmarked) [compound 1, cyclohexene oxide], for which the Km (azide fixed at 60 mM, Hill coefficient n 3.33 ± 0.27, read-out: cyclohexene oxide / K50) came out at 28 ± 0.64 mM.

The values above are taken from paper PMC11536340, “A Dynamic Loop in Halohydrin Dehalogenase HheG Regulates Activity and Enantioselectivity in Epoxide Ring Opening” (ACS Catalysis, 2024).
